Assay results taken from patent US10022372B2, “Caveolin-1 related methods for treating glioblastoma with temozolomide” (THOMAS JEFFERSON UNIVERSITY, priority 2013, dated 2018).

Legend:
[1] = tested on: Cav-1 overexpressing U-87MG cells (LV105 Cav-1); test: Annexin V / propidium iodide flow cytometry of TMZ-treated U-87MG cells; format: cell-based, human
Procedure: FIG. 5. […] Each group is normalized to its own DMSO control (*p<0.05 and **p<0.01 vs internal DMSO control, \p<0.01 vs TMZ treated LV105 control, n=3 per group).
U-87MG cells (50,000/well) were plated in 12-well tissue culture dishes and allowed to attach overnight prior to changing their medium into complete EMEM containing either 500 μM TMZ or DMSO control and culturing them for an additional 72 hours. Cells were then trypsinized, centrifuged at 300×g for 5 min and resuspended in binding buffer with APC-conjugated anti-Annexin V antibody (BP Biosciences) and 0.33 μg/ml Propidium Iodide (PI, KPL, Gaithersburg, Md.). All samples were run on a BD FACSCalibur flow cytometer (BD Biosciences). Cells were quantified according to staining as follows: viable (Annexin V negative, PI negative), early apoptotic (Annexin V positive, PI negative), late apoptotic (Annexin V positive, PI positive), and dead (Annexin V negative, PI positive).

[2] = cited from earlier work
[3] = tested on: three different GBM-derived cell lines; details: in vitro administration, Boyden-chamber assay; cited from earlier work

## Cn1nnc2c(C(N)=O)ncn2c1=O [temozolomide, 3,4-dihydro-3-methyl-4-oxoimidazo[5,1-d]-αs-tetrazine-8-carboxamide]
[1]; Cav-1 overexpressing U-87MG cells, 500 μM, 72 hours, p<0.01
  increase in early apoptotic cells compared to TMZ-treated LV105 control cells: > 400%
[1]; Homo sapiens, U-87 MG, 72 h, read-out: reduction in cell viability compared to TMZ treated LV105 control cells
  cytotoxicity at 500 µM: 5.5%
[2]; pH <5
  stability at acidic pH: stable
[2]; pH >7
  stability at pH>7: labile

B1: full length Cav-1: full length Caveolin-1 protein administered in vitro (protein, UniProt Q03135 1-178, looked up)
chain: MSGGKYVDSEGHLYTVPIREQGNIYKPNNKAMADELSEKQVYDAHTKEIDLVNRDPKHLNDDVVKIDFEDVIAEPEGTHSFDGIWKASFTTFTVTKYWFYRLLSALFGIPMALIWGIYFAILSFLHIWAVVPCIKSFLIEIQCISRVYSIYVHTVCDPLFEAVGKIFSNVRINLQKEI
modifications: full-length
notes: full length Caveolin-1 protein administered in vitro
[3]
  invasion: prevented invasion
